Experimental data: PubChem BioAssay (NCI)
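GI50 = concentration required for 50% inhibition of growth. Definition used: TGI = concentration required for complete inhibition of growth.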

Assays:
Test in all cases: growth of human tumour cells (NCI), 384-well format
[1] = system: HCC-2998 colon
[2] = system: OVCAR-8 ovarian
[3] = system: SNB-75 CNS
[4] = system: IGROV1 ovarian
[5] = system: NCI-H23 lung
[6] = system: SK-MEL-5 melanoma
[7] = system: UACC-62 melanoma
[8] = system: HS 578T breast
[9] = system: EKVX NSCLC
[10] = system: A498 renal
[11] = system: HCT-15 colon
[12] = system: OVCAR-4 ovarian
[13] = system: MDA-MB-468 breast
[14] = system: HOP-62 NSCLC
[15] = system: KM12 colon
[16] = system: MDA-MB-231 breast
[17] = system: M14 melanoma
[18] = system: SF-268 CNS
[19] = system: HL-60(TB) leukemia
[20] = system: U251 glioblastoma
[21] = system: UACC-257 melanoma
[22] = system: HT29 colon
[23] = system: NCI-H460 NSCLC
[24] = system: RPMI-8226 leukemia
[25] = system: SW-620 colon
[26] = system: HOP-92 NSCLC
[27] = system: 786-0 renal
[28] = system: SF-295 CNS
[29] = system: A549 NSCLC
[30] = system: CCRF-CEM leukemia
[31] = system: MCF7 breast
[32] = system: CAKI-1 renal
[33] = system: ACHN renal
[34] = system: TK-10 renal
[35] = system: NCI-H226 lung
[36] = system: MOLT-4 leukemia
[37] = system: NCI-H322M lung
[38] = system: SNB-19 CNS
[39] = system: SN12C renal
[40] = system: SK-MEL-28 melanoma
[41] = system: PC-3 prostate
[42] = system: RXF 393 renal
[43] = system: MALME-3M melanoma
[44] = system: SF-539 CNS
[45] = system: T-47D breast
[46] = system: OVCAR-5 ovarian
[47] = system: MDA-MB-435 melanoma
[48] = system: SK-MEL-2 melanoma
[49] = system: NCI/ADR-RES ovarian
[50] = system: NCI-H522 lung
[51] = system: COLO 205 colon
[52] = system: SK-OV-3 ovarian
[53] = system: OVCAR-3 ovarian
[54] = system: DU-145 prostate
[55] = system: SR leukemia
[56] = system: BT-549 breast
[57] = system: HCT-116 colon
[58] = system: K-562 leukemia
[59] = system: LOX IMVI melanoma
[60] = system: UO-31 renal

O=c1[nH]c(C2CCCN2)nc2c1oc1ccc(Cl)cc12 (configuration not stated)
GI50 [1]: > 100 µM | TGI [1]: > 100 µM | GI50 [2]: > 100 µM | TGI [2]: > 100 µM | GI50 [3]: 38.1 µM | TGI [3]: > 100 µM | GI50 [4]: > 100 µM | TGI [4]: > 100 µM | GI50 [5]: > 100 µM | TGI [5]: > 100 µM | GI50 [6]: 36.2 µM | TGI [6]: > 100 µM | GI50 [7]: > 100 µM | TGI [7]: > 100 µM | GI50 [8]: > 100 µM | TGI [8]: > 100 µM | GI50 [9]: 85 µM | TGI [9]: > 100 µM | GI50 [10]: 58.5 µM | TGI [10]: > 100 µM | GI50 [11]: > 100 µM | TGI [11]: > 100 µM | GI50 [12]: 81.8 µM | TGI [12]: > 100 µM | GI50 [13]: 21.2 µM | TGI [13]: 56.7 µM | GI50 [14]: > 100 µM | TGI [14]: > 100 µM | GI50 [15]: > 100 µM | TGI [15]: > 100 µM | GI50 [16]: 99.5 µM | TGI [16]: > 100 µM | GI50 [17]: 62.8 µM | TGI [17]: > 100 µM | GI50 [18]: > 100 µM | TGI [18]: > 100 µM | GI50 [19]: 29.8 µM | TGI [19]: > 100 µM | GI50 [20]: > 100 µM | TGI [20]: > 100 µM | GI50 [21]: > 100 µM | TGI [21]: > 100 µM | GI50 [22]: > 100 µM | TGI [22]: > 100 µM | GI50 [23]: > 100 µM | TGI [23]: > 100 µM | GI50 [24]: > 100 µM | TGI [24]: > 100 µM | GI50 [25]: > 100 µM | TGI [25]: > 100 µM | GI50 [26]: 65.3 µM | TGI [26]: > 100 µM | GI50 [27]: > 100 µM | TGI [27]: > 100 µM | GI50 [28]: > 100 µM | TGI [28]: > 100 µM | GI50 [29]: > 100 µM | TGI [29]: > 100 µM | GI50 [30]: 18.2 µM | TGI [30]: 37.8 µM | GI50 [31]: > 100 µM | TGI [31]: > 100 µM | GI50 [32]: 57 µM | TGI [32]: > 100 µM | GI50 [33]: > 100 µM | TGI [33]: > 100 µM | GI50 [34]: > 100 µM | TGI [34]: > 100 µM | GI50 [35]: 49.5 µM | TGI [35]: > 100 µM | GI50 [36]: 31 µM | TGI [36]: > 100 µM | GI50 [37]: > 100 µM | TGI [37]: > 100 µM | GI50 [38]: > 100 µM | TGI [38]: > 100 µM | GI50 [39]: > 100 µM | TGI [39]: > 100 µM | GI50 [40]: > 100 µM | TGI [40]: > 100 µM | GI50 [41]: > 100 µM | TGI [41]: > 100 µM | GI50 [42]: 21 µM | TGI [42]: 43.1 µM | GI50 [43]: 14.8 µM | TGI [43]: > 100 µM | GI50 [44]: 53.6 µM | TGI [44]: > 100 µM | GI50 [45]: 19 µM | TGI [45]: 35 µM | GI50 [46]: > 100 µM | TGI [46]: > 100 µM | GI50 [47]: > 100 µM | TGI [47]: > 100 µM | GI50 [48]: > 100 µM | TGI [48]: > 100 µM | GI50 [49]: > 100 µM | TGI [49]: > 100 µM | GI50 [50]: 14.4 µM | TGI [50]: 31 µM | GI50 [51]: 31.2 µM | TGI [51]: 83 µM | GI50 [52]: > 100 µM | TGI [52]: > 100 µM | GI50 [53]: > 100 µM | TGI [53]: > 100 µM | GI50 [54]: > 100 µM | TGI [54]: > 100 µM | GI50 [55]: 37.3 µM | TGI [55]: > 100 µM | GI50 [56]: 29.3 µM | TGI [56]: 78.4 µM

CC(C)(C)C[C@H]1N[C@@H](C(=O)NC2CCC(O)CC2)[C@H](c2cccc(Cl)c2F)[C@@]12C(=O)Nc1cc(Cl)ccc12 (some centres not stated)
GI50 [1]: 9.2 µM | TGI [1]: 21.3 µM | GI50 [2]: 12.5 µM | TGI [2]: 25.1 µM | GI50 [3]: 6.62 µM | TGI [3]: 19.2 µM | GI50 [57]: 0.304 µM | TGI [57]: 11.7 µM | GI50 [4]: 6.09 µM | TGI [4]: 20.4 µM | GI50 [5]: 10 µM | TGI [5]: 22.5 µM | GI50 [6]: 2.57 µM | TGI [6]: 13.1 µM | GI50 [7]: 0.1 µM | TGI [7]: 1.86 µM | GI50 [8]: 3.21 µM | TGI [8]: 11.9 µM | GI50 [9]: 8.97 µM | TGI [9]: 21.5 µM | GI50 [10]: 0.211 µM | TGI [10]: 3.41 µM | GI50 [11]: 10.7 µM | TGI [11]: 22.9 µM | GI50 [12]: 7.25 µM | TGI [12]: 20.3 µM | GI50 [13]: 2.27 µM | TGI [13]: 9.06 µM | GI50 [14]: 14.7 µM | TGI [14]: 28 µM | GI50 [15]: 2.15 µM | TGI [15]: 16.2 µM | GI50 [16]: 9.89 µM | TGI [16]: 22.3 µM | GI50 [17]: 5.59 µM | TGI [17]: 20.3 µM | GI50 [18]: 13.6 µM | TGI [18]: 26.5 µM | GI50 [19]: 2.21 µM | TGI [19]: 4.44 µM | GI50 [20]: 12.2 µM | TGI [20]: 24.7 µM | GI50 [21]: 0.556 µM | TGI [21]: 2.4 µM | GI50 [22]: 3.65 µM | TGI [22]: 13.4 µM | GI50 [23]: 1.71 µM | TGI [23]: 14.9 µM | GI50 [24]: 2.35 µM | TGI [24]: 4.06 µM | GI50 [25]: 14.7 µM | TGI [25]: 28 µM | GI50 [58]: 4.1 µM | TGI [58]: 13.6 µM | GI50 [26]: 8.42 µM | TGI [26]: 21.4 µM | GI50 [27]: 8.2 µM | TGI [27]: 21.1 µM | GI50 [28]: 7.09 µM | TGI [28]: 19.8 µM | GI50 [29]: 0.5 µM | TGI [29]: 11.9 µM | GI50 [30]: 3.25 µM | TGI [30]: 10.6 µM | GI50 [31]: 0.318 µM | TGI [31]: 7.21 µM | GI50 [32]: 0.195 µM | TGI [32]: 10.8 µM | GI50 [33]: 0.218 µM | TGI [33]: 2.53 µM | GI50 [34]: 8.04 µM | TGI [34]: 20.8 µM | GI50 [35]: 0.226 µM | TGI [35]: 1.1 µM | GI50 [36]: 0.0487 µM | TGI [36]: 0.152 µM | GI50 [37]: 17.2 µM | TGI [37]: 31.1 µM | GI50 [38]: 14.1 µM | TGI [38]: 27.2 µM | GI50 [39]: 14 µM | TGI [39]: 27.2 µM | GI50 [40]: 7.87 µM | TGI [40]: 20.5 µM | GI50 [41]: 7.04 µM | TGI [41]: 18.7 µM | GI50 [42]: 2.38 µM | TGI [42]: 8.18 µM | GI50 [43]: 0.229 µM | TGI [43]: 5.03 µM | GI50 [44]: 8.76 µM | TGI [44]: 22.3 µM | GI50 [45]: 8.29 µM | TGI [45]: 20.8 µM | GI50 [46]: 13.6 µM | TGI [46]: 26.5 µM | GI50 [47]: 10.2 µM | TGI [47]: 23 µM | GI50 [48]: 4.41 µM | TGI [48]: 14.6 µM | GI50 [49]: 17.5 µM | TGI [49]: 31.4 µM | GI50 [50]: 3.32 µM | TGI [50]: 10.1 µM | GI50 [51]: 11.7 µM | TGI [51]: 24.1 µM | GI50 [52]: 14.6 µM | TGI [52]: 27.9 µM | GI50 [53]: 6.74 µM | TGI [53]: 19.2 µM | GI50 [54]: 13 µM | TGI [54]: 25.8 µM | GI50 [55]: 0.0271 µM | TGI [55]: 0.0996 µM | GI50 [59]: 0.366 µM | TGI [59]: 15.8 µM | GI50 [56]: 10.1 µM | TGI [56]: 23.2 µM | GI50 [60]: 0.461 µM | TGI [60]: 2.52 µM
